Assay results published in PubChem BioAssay (NCI).
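A five-concentration, 48-hour dose response in 96-well plates underlies each endpoint, interpolated linearly between surrounding concentrations. Abbreviation: GI50, concentration required for 50% inhibition of growth. TGI marks complete inhibition of growth.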

Experiments:
Experiment in all cases: inhibition of tumour cell growth, NCI panel, 48 h
[1] = tested on: COLO 205 colon
[2] = tested on: HCC-2998 colon
[3] = tested on: HCT-15 colon
[4] = tested on: MALME-3M melanoma
[5] = tested on: NCI/ADR-RES ovarian
[6] = tested on: OVCAR-8 ovarian
[7] = tested on: RPMI-8226 leukemia
[8] = tested on: SK-MEL-2 melanoma
[9] = tested on: SW-620 colon
[10] = tested on: U251 CNS

SMILES | GI50 [1] [µM] | TGI [1] [µM] | GI50 [2] [µM] | TGI [2] [µM] | GI50 [3] [µM] | TGI [3] [µM] | GI50 [4] [µM] | TGI [4] [µM] | GI50 [5] [µM] | TGI [5] [µM] | GI50 [6] [µM] | TGI [6] [µM] | GI50 [7] [µM] | TGI [7] [µM] | GI50 [8] [µM] | TGI [8] [µM] | GI50 [9] [µM] | TGI [9] [µM] | GI50 [10] [µM] | TGI [10] [µM]
CO[C@H]1C[C@@H]2CC[C@@H](C)[C@@](O)(O2)C(=O)C(=O)N2CCCC[C@H]2C(=O)O[C@H]([C@H](C)C[C@@H]2CC[C@@H](OP(C)(C)=O)[C@H](OC)C2)CC(=O)[C@H](C)/C=C(\C)[C@@H](O)[C@@H](OC)C(=O)[C@H](C)C[C@H](C)/C=C/C=C/C=C/1C | 12.7 | 27.7 | 5.02 | 24.7 | 1.21 | 29.5 | < 0.01 | 16.8 | 11 | 30.8 | < 0.01 | 28.8 | 8.49 | 40.6 | 2.31 | 22.4 | 12.1 | 27.9 | 0.0208 | 19.2
O=C(O)CCCSc1nc2ccccc2s1 |  | > 100 |  | > 100 |  | > 100 |  | > 100 |  | > 100 |  | > 100 |  | > 100 |  | > 100 |  | > 100 |  | > 100
COc1ccc2[nH]c(=O)c(/C=C/C(=O)/C=C/c3ccc(O)c(OC)c3)cc2c1 | 1.6 | 3.81 | 1.97 | 3.64 | 1.41 | 3.81 | 2.16 | 5.28 | 3.39 | > 100 | 1.52 | 11.5 | 0.359 | 1.65 | 2.47 | 6.24 | 1.13 | 3.33 | 1.17 | 2.68
N#Cc1cccc(/C=C(/C(=O)c2ccccc2)c2ccccc2)c1 | 5.3 | 20 | 3.15 | 9.35 | 3.4 | 22.8 | 9.61 | 27.8 | 3.62 | > 100 | 2.97 | 25.5 | 2.82 | 9.27 |  |  | 3.28 | 15.5 | 3.43 | 12.5
CO/N=C(/COc1c(-c2ccccc2)oc2ccccc2c1=O)c1ccc(OC)cc1 | > 100 | > 100 | > 100 | > 100 | > 100 | > 100 | > 100 | > 100 | 76.2 | > 100 | > 100 | > 100 | 41.9 | > 100 | > 100 | > 100 | > 100 | > 100 | > 100 | > 100
CCOC(=O)Cn1c(C)c(/C=N/NC(=O)c2cc3c(ccc4ccccc43)o2)c2ccccc21 | 0.401 |  | 0.609 | 2.84 | 0.408 | 5.45 | 0.575 | 3.22 | 0.259 | 3.08 | 0.486 |  | 0.443 | 3.12 | 0.77 | 7.05 | 0.48 | 11.4 | 0.426 | 4.17
CCOC(=O)c1ccc(Nc2sc(C(=O)c3cccc([N+](=O)[O-])c3)c(N)c2C#N)cc1 | 0.156 | 1.59 | 2.78 | > 100 | 0.102 | > 100 | 0.0754 | 23 | 0.0521 | 25.7 | 1.4 | 10.4 | 0.333 | 20.3 | 0.403 | 24.4 | 0.0591 | 6.63 | 0.0607 | 3.86
Nc1ccn(C2CC(O)C(CO)O2)c(=O)n1 (stereo not drawn) | > 5000 | > 5000 | > 5000 | > 5000 | > 5000 | > 5000 | > 5000 | > 5000 | > 5000 | > 5000 | > 5000 | > 5000 | > 5000 | > 5000 | > 5000 | > 5000 | > 5000 | > 5000 | > 5000 | > 5000
C#C[C@@]1(O)[C@@H](CO)O[C@@H](n2ccc3c(N)ncnc32)[C@@H]1O | 0.679 | 2.67 | 1.45 | 3.12 | 0.892 | 4.62 | 1.68 | 5.55 | 0.791 | 7.28 | 1.03 | 4.11 | 0.777 | > 100 | 1.37 | 6.32 | 0.493 | 12.7 | 2.44 | 11.8
C/C1=C\C/C=C(\C)[C@H]2CC(CC/C(C)=C/CC1)[C@@](C)(CO)O2 | > 100 | > 100 | > 100 | > 100 | > 100 | > 100 |  |  | > 100 | > 100 | > 100 | > 100 | 40.6 | > 100 | 44.9 | > 100 | 52.9 | > 100 | 84.2 | > 100
O=C(Nc1ccccc1)NS(=O)(=O)c1ccc(N2N=C3c4ccccc4CC3C2c2ccccn2)cc1 (stereo not drawn) | 31.1 | > 100 | 17.3 | 33.3 | 23.1 | > 100 |  |  | 64.4 | > 100 | 27 | 92.3 | 27.1 | > 100 | 35.6 | > 100 | 34 | > 100 | 31.9 | > 100
O=C1c2cc3c(cc2[C@@H]2[C@H]1c1ccc([N+](=O)[O-])cc1C(=O)N2CCCCl)OCO3 | < 0.0131 | > 100 | 0.0164 | 0.568 | < 0.0145 | > 40.6 |  |  | < 0.01 | 0.548 | < 0.01 | > 100 | < 0.0171 | > 100 | 0.0827 | > 100 | < 0.01 | > 100 | < 0.01 | < 0.0128
COc1ccc2c(c1)sc1nc(-c3ccccc3)c(-c3ccc(O)c(OC)c3)n12 | 5.3 | 34.6 | > 100 | > 100 | 4.03 | > 100 | > 100 | > 100 | 4.55 | > 100 | 41.2 | > 100 |  |  | 21.3 | > 100 | 5.15 | > 100 | 5.28 | > 100
